In the OligoGym collection one finds TLR8 potentiation (NF-kB luciferase) (fold of resiquimod alone) and TLR7 signal (NF-kB luciferase) (% of resiquimod alone) data, which are given here for 14 substances.

HELM strings list units from the 5' end as sugar, base in round brackets, then linkage (d deoxyribose, r ribose, m 2'-O-methyl, p phosphodiester). [sp] = phosphorothioate linkage

Data set [1] deals with CTNNB1. Nature of the data set: HEK293-TLR8, 100 nM ASO, then resiquimod.
Data set [2] concerns the target CTNNB1. Nature of the data set: HEK293-TLR7, 100 nM ASO, then resiquimod.

For “RNA1{m(G)[sp].m(G)[sp].m(G)[sp].m(A)[sp].m(A)[sp].d(A)[sp].d(G)[sp].d(G)[sp].d(T)[sp].d(T)[sp].d(A)[sp].d(T)[sp].d(G)[sp].d(C)[sp].d(A)[sp].m(A)[sp].m(G)[sp].m(G)[sp].m(U)[sp].m(C)}$$$$”, the TLR8 potentiation (NF-kB luciferase) (fold of resiquimod alone) in the data set with CTNNB1 [1] was 1.76. In the data set with CTNNB1 [2], this substance had a TLR7 signal (NF-kB luciferase) (% of resiquimod alone) of 51.4.
In the same order, the values of “RNA1{m(G)[sp].m(C)[sp].m(G)[sp].m(U)[sp].m(G)[sp].d(T)[sp].d(C)[sp].d(T)[sp].d(G)[sp].d(G)[sp].d(A)[sp].d(A)[sp].d(G)[sp].d(C)[sp].d(T)[sp].m(U)[sp].m(C)[sp].m(C)[sp].m(U)[sp].m(U)}$$$$” are 0.91 and 40.7.
Take “RNA1{m(U)[sp].m(G)[sp].m(C)[sp].m(U)[sp].m(U)[sp].d(A)[sp].d(T)[sp].d(T)[sp].d(T)[sp].d(T)[sp].d(A)[sp].d(A)[sp].d(G)[sp].d(C)[sp].d(A)[sp].m(U)[sp].m(A)[sp].m(U)[sp].m(U)[sp].m(A)}$$$$”: the TLR8 potentiation (NF-kB luciferase) (fold of resiquimod alone) with CTNNB1 [1] is 2.73. In the data set with CTNNB1 [2], this substance showed a TLR7 signal (NF-kB luciferase) (% of resiquimod alone) of 66.4.
As to “RNA1{m(A)[sp].m(C)[sp].m(U)[sp].m(G)[sp].m(C)[sp].d(A)[sp].d(T)[sp].d(T)[sp].d(C)[sp].d(T)[sp].d(G)[sp].d(G)[sp].d(G)[sp].d(C)[sp].d(C)[sp].m(A)[sp].m(U)[sp].m(C)[sp].m(U)[sp].m(C)}$$$$”, the TLR8 potentiation (NF-kB luciferase) (fold of resiquimod alone) in the data set with CTNNB1 [1] was 2.96. The TLR7 signal (NF-kB luciferase) (% of resiquimod alone) with CTNNB1 [2] is 73.2.
“RNA1{m(C)[sp].m(U)[sp].m(U)[sp].m(G)[sp].m(G)[sp].d(T)[sp].d(G)[sp].d(T)[sp].d(C)[sp].d(G)[sp].d(G)[sp].d(C)[sp].d(T)[sp].d(G)[sp].d(G)[sp].m(U)[sp].m(C)[sp].m(A)[sp].m(G)[sp].m(A)}$$$$”: the TLR8 potentiation (NF-kB luciferase) (fold of resiquimod alone) with CTNNB1 [1] stood at 2.15. The substance also showed a TLR7 signal (NF-kB luciferase) (% of resiquimod alone) with CTNNB1 [2] of 79.8.
Take “RNA1{m(U)[sp].m(A)[sp].m(U)[sp].m(U)[sp].m(U)[sp].d(T)[sp].d(A)[sp].d(A)[sp].d(G)[sp].d(C)[sp].d(A)[sp].d(T)[sp].d(A)[sp].d(T)[sp].d(T)[sp].m(A)[sp].m(A)[sp].m(A)[sp].m(A)[sp].m(A)}$$$$”: the TLR8 potentiation (NF-kB luciferase) (fold of resiquimod alone) with CTNNB1 [1] was 2.61. The TLR7 signal (NF-kB luciferase) (% of resiquimod alone) in the data set with CTNNB1 [2] worked out at 62.3.
For “RNA1{m(C)[sp].m(G)[sp].m(A)[sp].m(A)[sp].m(U)[sp].d(G)[sp].d(A)[sp].d(A)[sp].d(T)[sp].d(T)[sp].d(A)[sp].d(A)[sp].d(A)[sp].d(A)[sp].d(G)[sp].m(U)[sp].m(U)[sp].m(U)[sp].m(A)[sp].m(A)}$$$$” the same measures were 3.01 and 104.
As for “RNA1{m(U)[sp].m(A)[sp].m(G)[sp].m(C)[sp].m(G)[sp].d(T)[sp].d(G)[sp].d(T)[sp].d(C)[sp].d(T)[sp].d(G)[sp].d(G)[sp].d(A)[sp].d(A)[sp].d(G)[sp].m(C)[sp].m(U)[sp].m(U)[sp].m(C)[sp].m(C)}$$$$”, the TLR8 potentiation (NF-kB luciferase) (fold of resiquimod alone) with CTNNB1 [1] was 1.56. In the data set with CTNNB1 [2], this substance registered a TLR7 signal (NF-kB luciferase) (% of resiquimod alone) of 60.3.
As for “RNA1{m(G)[sp].m(G)[sp].m(U)[sp].m(C)[sp].m(C)[sp].d(A)[sp].d(T)[sp].d(A)[sp].d(C)[sp].d(C)[sp].d(C)[sp].d(A)[sp].d(A)[sp].d(G)[sp].d(G)[sp].m(C)[sp].m(A)[sp].m(U)[sp].m(C)[sp].m(C)}$$$$”, the TLR8 potentiation (NF-kB luciferase) (fold of resiquimod alone) with CTNNB1 [1] came out at 1. Also, in the data set with CTNNB1 [2], the TLR7 signal (NF-kB luciferase) (% of resiquimod alone) turned out to be 105.
For “RNA1{m(C)[sp].m(G)[sp].m(U)[sp].m(G)[sp].m(U)[sp].d(C)[sp].d(T)[sp].d(G)[sp].d(G)[sp].d(A)[sp].d(A)[sp].d(G)[sp].d(C)[sp].d(T)[sp].d(T)[sp].m(C)[sp].m(C)[sp].m(U)[sp].m(U)[sp].m(U)}$$$$”, the TLR8 potentiation (NF-kB luciferase) (fold of resiquimod alone) with CTNNB1 [1] turned out to be 2.89. Also, in the data set with CTNNB1 [2], the TLR7 signal (NF-kB luciferase) (% of resiquimod alone) is 67.
With “RNA1{m(U)[sp].m(U)[sp].m(U)[sp].m(U)[sp].m(A)[sp].d(A)[sp].d(G)[sp].d(C)[sp].d(A)[sp].d(T)[sp].d(A)[sp].d(T)[sp].d(T)[sp].d(A)[sp].d(A)[sp].m(A)[sp].m(A)[sp].m(A)[sp].m(G)[sp].m(G)}$$$$”, the TLR8 potentiation (NF-kB luciferase) (fold of resiquimod alone) with CTNNB1 [1] is 3.67. This substance yielded a TLR7 signal (NF-kB luciferase) (% of resiquimod alone) with CTNNB1 [2] of 59.4.
For the substance “RNA1{m(U)[sp].m(C)[sp].m(U)[sp].m(U)[sp].m(A)[sp].d(T)[sp].d(A)[sp].d(A)[sp].d(T)[sp].d(T)[sp].d(A)[sp].d(T)[sp].d(T)[sp].d(G)[sp].d(C)[sp].m(A)[sp].m(A)[sp].m(G)[sp].m(U)[sp].m(G)}$$$$”, the TLR8 potentiation (NF-kB luciferase) (fold of resiquimod alone) in the data set with CTNNB1 [1] was 4.58. This substance also gave a TLR7 signal (NF-kB luciferase) (% of resiquimod alone) with CTNNB1 [2] of 110.
Take “RNA1{m(G)[sp].m(G)[sp].m(A)[sp].m(U)[sp].m(C)[sp].d(T)[sp].d(G)[sp].d(C)[sp].d(A)[sp].d(T)[sp].d(G)[sp].d(C)[sp].d(C)[sp].d(C)[sp].d(T)[sp].m(C)[sp].m(A)[sp].m(U)[sp].m(C)[sp].m(U)}$$$$”: the TLR8 potentiation (NF-kB luciferase) (fold of resiquimod alone) in the data set with CTNNB1 [1] came out at 1.15. The substance further returned a TLR7 signal (NF-kB luciferase) (% of resiquimod alone) in the data set with CTNNB1 [2] of 47.9.
For “RNA1{m(A)[sp].m(U)[sp].m(U)[sp].m(U)[sp].m(U)[sp].d(A)[sp].d(A)[sp].d(G)[sp].d(C)[sp].d(A)[sp].d(T)[sp].d(A)[sp].d(T)[sp].d(T)[sp].d(A)[sp].m(A)[sp].m(A)[sp].m(A)[sp].m(A)[sp].m(G)}$$$$” the same measures were 2.37 and 47.
